Data on one compound can be found in US20160296529A1, “AMINOTRIAZOLOPYRIDINE FOR USE IN THE TREATMENT OF INFLAMMATION, AND PHARMACEUTICAL COMPOSITIONS THEREOF” (priority 2012, published 2016).

Values joined by “and” are separate entries in the source; they are usually repeats but may differ in a detail not shown here. Equal entries are not always repeated. Where two headings read alike, the source gives them in different places.

Assay [1] addresses T1, Recombinant human JAK1 catalytic domain (Homo sapiens, UniProt P23458).
T1 construct: amino acids 866-1154; catalog number PV4774; purchased Invitrogen PV4774
As to the kind of experiment: JAK1 assay polyGT substrate. The assay is classed as biochemical. The method, then:
Recombinant human JAK1 catalytic domain (amino acids 866-1154; catalog number PV4774) was purchased from Invitrogen. 25 ng of JAK1 was incubated with 6.25 μg polyGT substrate (Sigma catalog number P0275) in kinase reaction buffer (15 mM Hepes pH7.5, 0.01% Tween20, 10 mM MgCl2, 2 μM non-radioactive ATP, 0.25 μCi ^33P-gamma-ATP (Perkin Elmer, catalog number NEG602K001MC) final concentrations) with or without 5 μL containing test compound or vehicle (DMSO, 1% final concentration), in a total volume of 25 μL, in a polypropylene 96-well plate (Greiner, V-bottom). After 75 min at 30° C., reactions were stopped by adding 25 μL/well of 150 mM phosphoric acid. […] 40 μL/well of Microscint-20 was added, the top of the plates was sealed and readout was performed using the Topcount (Perkin Elmer). Kinase activity was calculated by subtracting counts per min (cpm) obtained in the presence of a positive control inhibitor (10 μM staurosporine) from cpm obtained in the presence of vehicle. The ability of a test compound to inhibit this activity was determined as:
Percentage inhibition−((cpm determined for sample with test compound present−cpm determined for sample with positive control inhibitor) divided by (cpm determined in the presence of vehicle−cpm determined for sample with positive control inhibitor))*100. […]

For assay [2], the system named is GM-CSF-induced STAT5 phosphorylation (JAK2-dependent pathway). As to the kind of experiment: Human whole blood assay (hWBA), GM-CSF stimulation, phospho-STAT5 on CD33+ cells. Conditions: 7 different donors. In kind it is cell-based. The method, then:
A flow cytometry analysis was performed to establish JAK1 over JAK2 compound selectivity ex vivo using human whole blood. Therefore, blood is taken from human volunteers who gave informed consent. Blood is then equilibrated for 30 min at 37° C. under gentle rocking, then aliquoted in Eppendorf tubes. Compound is added at different concentrations and incubated at 37° C. for 30 min under gentle rocking and subsequently stimulated for 20 min at 37° C. under gentle rocking with interleukin 6 (IL-6) for JAK1-dependent pathway stimulation or GM-CSF for JAK2-dependent pathway stimulation. Phospho-STAT1 and phospho-STAT5 are then evaluated using FACS analysis. […]
Cells were then washed once with 1×PBS and analyzed on a FACSCanto II flow cytometer (BD Biosciences).
50,000 total events were counted and Phospho-STAT5 positive cells were measured after gating on CD33^+ cells. Data were analyzed using the FACSDiva software and correspond to the percentage of inhibition of GM-CSF stimulation calculated from the percentage of positive cells for phosphor-STAT5 on CD33^+ cells.
A flow cytometry analysis was performed to establish JAK1 over JAK2 compound selectivity ex vivo using human whole blood. […] Phospho-STAT1 (for IL-6- and IFNα-stimulated cells) and phospho-STAT5 (for IL-2- and GM-CSF-stimulated cells) levels are then evaluated using FACS analysis. […]

T1 sequence (P23458 866-1154): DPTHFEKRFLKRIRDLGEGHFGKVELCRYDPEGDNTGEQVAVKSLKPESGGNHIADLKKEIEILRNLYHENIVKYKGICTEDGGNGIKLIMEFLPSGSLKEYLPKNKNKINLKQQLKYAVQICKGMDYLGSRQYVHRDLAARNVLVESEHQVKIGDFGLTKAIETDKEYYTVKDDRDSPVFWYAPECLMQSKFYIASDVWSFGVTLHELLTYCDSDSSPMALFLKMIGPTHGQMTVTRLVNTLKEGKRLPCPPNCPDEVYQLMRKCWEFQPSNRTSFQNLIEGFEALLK

For `Nc1nc2cccc(-c3ccc(CN4CCS(=O)(=O)CC4)cc3)n2n1` [Formula I, 5-[4-(1,1-Dioxothiomorpholin-4-ylmethyl)-phenyl]-[1,2,4]triazolo[1,5-a]pyridin-2-ylamine], the IC50 in assay [1] (average, read-out: IC50 (average)) is 546 nM; in assay [1] (individual determinations, read-out: IC50), 460 nM and 586 nM and 494 nM and 758 nM and 433 nM; in assay [2], greater than 100 µM.
